Structures can show the parent of a compound that is named as a salt. Values belong to the compound of their own block, whether it stands above or below them.
Assays:
[1] = molecular target: factor Xa (Bos taurus, UniProt P00743); experiment: Inhibition of factor Xa (dissociation constant Ki); type: biochemical; settings: for Ki: Tables 19-25, read-out: Ki, Factor Xa
[2] = molecular target: thrombin (Bos taurus, UniProt P00735); experiment: Inhibition of thrombin (dissociation constant Ki); type: biochemical
[3] = molecular target: T1, factor XIIa (Homo sapiens, UniProt P00748); experiment: Inhibition of factor XIIa (Ki); type: biochemical; settings: Table 26
T1 construct: glandular kallikrein, factor XIIa and plasma kallikrein
T1 sequence (P00748 373-615 limits assumed): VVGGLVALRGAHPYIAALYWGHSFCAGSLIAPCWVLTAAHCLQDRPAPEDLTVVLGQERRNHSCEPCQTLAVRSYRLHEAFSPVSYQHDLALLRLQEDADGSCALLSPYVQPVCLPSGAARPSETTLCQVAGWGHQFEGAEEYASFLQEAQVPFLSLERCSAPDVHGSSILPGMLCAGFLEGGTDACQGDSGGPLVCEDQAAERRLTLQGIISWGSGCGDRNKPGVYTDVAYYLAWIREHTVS

[4] = molecular target: glandular kallikrein (Sus scrofa, UniProt P00752); experiment: Inhibition of glandular kallikrein (Ki); type: biochemical; settings: Table 26; read-out: Ki, Gland. Kallikrein
[5] = molecular target: tPA (Homo sapiens, UniProt P00750); experiment: Inhibition of tPA (Ki); type: biochemical; settings: Table 26
[6] = molecular target: T2, plasmin (Homo sapiens, UniProt P00747); experiment: Inhibition of plasmin (Ki); type: biochemical; settings: Table 26
T2 construct: trypsin and the related enzymes thrombin, plasmin, factor Xa, tPA

[7] = molecular target: T3, plasma kallikrein (Homo sapiens, UniProt P03952); experiment: Inhibition of plasma kallikrein (Ki); type: biochemical; settings: Table 26
T3 construct: glandular kallikrein, factor XIIa and plasma kallikrein

[8] = in vivo; settings: mouse
[9] = Plasma concentration in rats after subcutaneous administration (HPLC); settings: rat
Procedure: (§1) For the pharmacokinetic characterization, the plasma concentration of selected derivatives was determined in rats after intravenous (i.v.), subcutaneous (s.c.) and peroral (p.o.) application according to the following three-step procedure:
(§2) 1. A physiological NaCl solution of the substance to be tested was submitted to high pressure liquid chromatography (HPLC) in order to determine its characteristic substance-specific retention time with the chosen test conditions.
(§3) 2. The substance to be tested was diluted in vitro in rat plasma. This solution was also submitted to HPLC to see whether the characteristic peak of the substance once again appeared at the substance-specific retention time.
(§4) 3. […] Blood samples were taken at time intervals of 15 minutes, from which plasma samples were prepared by centrifugation; those samples were also submitted to HPLC to see whether the characteristic peak of the substance appeared again at the substance-specific retention time.

[10] = Plasma concentration in rats after oral administration (HPLC); settings: rat
[11] = Plasma concentration in rats after intravenous administration (HPLC); settings: for pharmacokinetic properties: in words, compared with NAPAP
Procedure: as §1, §2, §3, §4

Chain of factor Xa (P00743 234-492 limits assumed): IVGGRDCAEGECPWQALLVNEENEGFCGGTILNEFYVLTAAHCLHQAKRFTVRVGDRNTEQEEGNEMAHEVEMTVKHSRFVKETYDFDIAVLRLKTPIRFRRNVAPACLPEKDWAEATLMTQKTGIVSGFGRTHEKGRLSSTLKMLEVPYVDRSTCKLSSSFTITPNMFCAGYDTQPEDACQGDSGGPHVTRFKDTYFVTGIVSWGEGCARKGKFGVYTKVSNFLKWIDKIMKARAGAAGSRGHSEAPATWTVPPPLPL
Chain of factor Xa (P00743 41-180 partner limits assumed): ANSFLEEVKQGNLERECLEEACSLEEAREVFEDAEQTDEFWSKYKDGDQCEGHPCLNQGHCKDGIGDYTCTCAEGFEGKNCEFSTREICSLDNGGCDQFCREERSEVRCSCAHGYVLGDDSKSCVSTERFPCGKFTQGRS
Chain of glandular kallikrein (P00752 8-246): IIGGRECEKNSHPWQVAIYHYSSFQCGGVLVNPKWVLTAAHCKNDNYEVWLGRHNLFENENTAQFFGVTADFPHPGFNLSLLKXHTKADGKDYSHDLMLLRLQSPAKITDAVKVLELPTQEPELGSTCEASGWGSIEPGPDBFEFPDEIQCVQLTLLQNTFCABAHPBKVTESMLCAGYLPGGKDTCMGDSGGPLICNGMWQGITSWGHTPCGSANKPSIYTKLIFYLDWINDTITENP
Chain of tPA (P00750 36-562): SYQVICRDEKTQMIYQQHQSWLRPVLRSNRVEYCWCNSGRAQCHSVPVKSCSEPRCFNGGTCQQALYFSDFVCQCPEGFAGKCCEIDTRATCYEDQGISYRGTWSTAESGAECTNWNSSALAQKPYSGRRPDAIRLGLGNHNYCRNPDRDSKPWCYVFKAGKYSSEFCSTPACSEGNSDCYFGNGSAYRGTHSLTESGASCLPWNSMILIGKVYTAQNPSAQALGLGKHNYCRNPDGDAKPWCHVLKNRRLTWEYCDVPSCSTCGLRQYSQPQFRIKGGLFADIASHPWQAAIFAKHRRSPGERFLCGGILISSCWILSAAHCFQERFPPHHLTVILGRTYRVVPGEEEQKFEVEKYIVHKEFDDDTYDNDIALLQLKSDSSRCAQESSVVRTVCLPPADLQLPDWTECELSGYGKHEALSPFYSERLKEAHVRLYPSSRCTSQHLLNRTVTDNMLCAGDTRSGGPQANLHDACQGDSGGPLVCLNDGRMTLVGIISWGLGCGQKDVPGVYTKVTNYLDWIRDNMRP
T2 sequence (P00747 581-810 limits assumed): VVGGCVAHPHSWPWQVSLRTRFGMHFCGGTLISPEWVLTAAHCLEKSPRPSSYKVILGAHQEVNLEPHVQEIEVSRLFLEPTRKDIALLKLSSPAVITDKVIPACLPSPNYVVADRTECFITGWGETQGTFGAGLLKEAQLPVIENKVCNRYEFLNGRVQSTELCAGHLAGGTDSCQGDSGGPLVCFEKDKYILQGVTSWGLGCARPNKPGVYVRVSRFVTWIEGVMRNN
T2 sequence (P00747 97-580 partner limits assumed): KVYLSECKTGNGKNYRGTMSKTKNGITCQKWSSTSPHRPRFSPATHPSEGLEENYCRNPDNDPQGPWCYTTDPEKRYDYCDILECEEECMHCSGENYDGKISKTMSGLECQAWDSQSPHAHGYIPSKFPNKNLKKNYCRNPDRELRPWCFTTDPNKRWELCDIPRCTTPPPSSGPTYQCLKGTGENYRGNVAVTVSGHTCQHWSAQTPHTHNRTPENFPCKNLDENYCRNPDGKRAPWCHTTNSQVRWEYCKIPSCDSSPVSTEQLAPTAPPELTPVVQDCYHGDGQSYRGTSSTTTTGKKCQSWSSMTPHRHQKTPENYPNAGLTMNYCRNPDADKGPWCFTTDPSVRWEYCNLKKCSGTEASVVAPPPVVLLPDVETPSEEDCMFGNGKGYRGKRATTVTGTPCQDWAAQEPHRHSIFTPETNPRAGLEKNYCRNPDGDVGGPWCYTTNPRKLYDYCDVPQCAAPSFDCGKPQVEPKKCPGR
T3 sequence (P03952 391-638 limits assumed, species assumed): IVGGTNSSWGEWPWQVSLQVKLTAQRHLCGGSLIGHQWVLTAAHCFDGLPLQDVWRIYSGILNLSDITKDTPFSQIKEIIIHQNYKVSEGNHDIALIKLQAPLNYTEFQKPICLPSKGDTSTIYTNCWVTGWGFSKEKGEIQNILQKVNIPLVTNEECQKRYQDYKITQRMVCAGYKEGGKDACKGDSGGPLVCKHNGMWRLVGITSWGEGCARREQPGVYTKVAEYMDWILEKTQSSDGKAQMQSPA
T3 sequence (P03952 20-390 partner limits assumed, species assumed): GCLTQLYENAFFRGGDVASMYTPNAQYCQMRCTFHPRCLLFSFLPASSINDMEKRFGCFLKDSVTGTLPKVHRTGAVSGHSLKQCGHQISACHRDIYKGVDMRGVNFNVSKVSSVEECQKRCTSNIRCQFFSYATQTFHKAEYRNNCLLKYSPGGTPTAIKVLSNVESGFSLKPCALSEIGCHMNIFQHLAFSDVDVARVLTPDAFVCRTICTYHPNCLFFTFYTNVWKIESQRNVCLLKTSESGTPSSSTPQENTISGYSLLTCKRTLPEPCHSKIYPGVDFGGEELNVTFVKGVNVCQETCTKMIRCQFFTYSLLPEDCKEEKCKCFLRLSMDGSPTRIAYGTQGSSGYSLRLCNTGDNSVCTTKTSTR

- Ki [1]: 140 µM
- Ki [2]: 50 µM
Structure (SMILES): NCc1cccc(CC(NS(=O)(=O)c2ccc3ccccc3c2)C(=O)N2CCCCC2C(=O)O)c1 (racemic) [Compound 185, N-α-(2-Naphthylsulfonyl)-3-aminomethyl-(D,L)-phenylalanyl-(D,L)-pipecolic acid]

- Ki [1]: > 1000 µM
- Ki [2]: 2.8 µM
Structure (SMILES): CC1CCN(C(=O)C(Cc2cccc(C(=N)NO)c2)NS(=O)(=O)c2ccc3ccccc3c2)CC1 (racemic) [Compound 187, N-α-(2-Naphthylsulfonyl)-3-oxamidino-(D,L)-phenylalanine-4-methylpiperidide hydroiodide]

- Ki [3]: 780 µM
- Ki [1]: 180 µM
- Ki [2]: 0.34 µM
- Ki [4]: 260 µM
- Ki [5]: > 1000 µM
- Ki [6]: 100 µM
- Ki [7]: > 1000 µM
Structure (SMILES): CC1CCN(C(=O)C(Cc2cccc(C(=N)N)c2)NS(=O)(=O)c2cccc3cccnc23)CC1 (racemic) [Compound 171, N-α-(8-quinolinesulfonyl)-3-amidino-(D,L)-phenylalanine-4-methylpiperidide hydroiodide]

Structure (SMILES): N=C(N)Nc1cccc(CC(NS(=O)(=O)c2ccc3ccccc3c2)C(=O)N2CCCCC2C(=O)O)c1 (racemic) [Compound 208, N-α-(2-Naphthylsulfonyl)-3-guanidino-(D,L)-phenylalanine-(D,L)-pipecolic acid hydrochloride]
- Ki [1]: 82 µM
- LD50 at 168 h ([8]; iv): > 50 mg/kg
- LD50 at 168 h ([8]; po): > 1000 mg/kg
- Ki [2]: 29 µM

- inhibition of factor Xa ([1]; in words): does not selectively inhibit factor Xa
- inhibition of thrombin ([2]; in words): surprisingly inhibits thrombin
- detection / concentration in plasma or absorption after oral administration ([10]; oral): absorbed by the intestine
- pharmacokinetic properties [11]: excellent pharmacokinetic properties
Structure (SMILES): N=C(N)c1cccc(C[C@H](NS(=O)(=O)c2ccc3ccccc3c2)C(=O)N2CCC[C@H]2C(=O)O)c1 [Nα-2-naphthylsulfonyl-3-amidinophenylalanyl proline]
- blood level after subcutaneous administration ([9]; s.c.): a relatively high blood level is reached which is maintained in an anticoagulantly effective concentration for a prolonged period of time

- Ki [1]: 720 µM
- Ki [2]: 720 µM
Structure (SMILES): Nc1cccc(CC(NS(=O)(=O)c2ccc3ccccc3c2)C(=O)N2CCC(C(=O)O)CC2)c1 (racemic) [Compound 205]

- Ki [1]: 38 µM
- Ki [2]: 0.88 µM
Structure (SMILES): COC(=O)CNC(=O)C1CCCCN1C(=O)C(Cc1cccc(C(=N)N)c1)NS(=O)(=O)c1ccc2ccccc2c1 (racemic) [Compound 117, N-α-(2-Naphthylsulfonyl-3-amidino-(D,L)-phenylalanyl-(D,L)-pipecolyl-glycine-methyl ester hydrochloride]

Structure (SMILES): NCc1cccc(CC(NS(=O)(=O)c2ccc3ccccc3c2)C(=O)N2CCC(C(=O)O)CC2)c1 (racemic) [Compound 186]
- Ki [1]: 230 µM
- concentration at 0.25 h ([9]; plasma, sc, 5 mg/kg): 251 ng/mL
- concentration at 0.5 h ([9]; plasma, sc, 5 mg/kg): 368 ng/mL
- concentration at 0.75 h ([9]; plasma, sc, 5 mg/kg): 444 ng/mL
- concentration at 1 h ([9]; plasma, sc, 5 mg/kg): 558 ng/mL
- concentration at 1.5 h ([9]; plasma, sc, 5 mg/kg): 629 ng/mL
- concentration at 2 h ([9]; plasma, sc, 5 mg/kg): 534 ng/mL
- concentration at 3 h ([9]; plasma, sc, 5 mg/kg): 533 ng/mL
- concentration at 4 h ([9]; plasma, sc, 5 mg/kg): 669 ng/mL
- concentration at 5 h ([9]; plasma, sc, 5 mg/kg): 455 ng/mL
- concentration at 6 h ([9]; plasma, sc, 5 mg/kg): 340 ng/mL
- LD50 at 168 h ([8]; iv): 100 mg/kg
- LD50 at 168 h ([8]; po): > 3000 mg/kg
- Ki [2]: 0.5 µM
- concentration at 0.25 h ([10]; plasma, po, 100 mg/kg): 996 ng/mL
- concentration at 0.5 h ([10]; plasma, po, 100 mg/kg): 800 ng/mL
- concentration at 0.75 h ([10]; plasma, po, 100 mg/kg): 769 ng/mL
- concentration at 1 h ([10]; plasma, po, 100 mg/kg): 1250 ng/mL
- concentration at 1.5 h ([10]; plasma, po, 100 mg/kg): 877 ng/mL
- concentration at 2 h ([10]; plasma, po, 100 mg/kg): 619 ng/mL
- concentration at 3 h ([10]; plasma, po, 100 mg/kg): 357 ng/mL
- concentration at 4 h ([10]; plasma, po, 100 mg/kg): 328 ng/mL
- concentration at 5 h ([10]; plasma, po, 100 mg/kg): 370 ng/mL
- concentration at 6 h ([10]; plasma, po, 100 mg/kg): 326 ng/mL
- pharmacokinetic properties [11]: improved pharmacokinetic properties
- concentration at 2 min ([11]; rat, plasma, iv, 1 mg/kg): 1840 ng/mL
- concentration at 5 min ([11]; rat, plasma, iv, 1 mg/kg): 1260 ng/mL
- concentration at 10 min ([11]; rat, plasma, iv, 1 mg/kg): 653 ng/mL
- concentration at 0.25 h ([11]; rat, plasma, iv, 1 mg/kg): 426 ng/mL
- concentration at 0.5 h ([11]; rat, plasma, iv, 1 mg/kg): 225 ng/mL
- concentration at 0.75 h ([11]; rat, plasma, iv, 1 mg/kg): 205 ng/mL
- concentration at 1 h ([11]; rat, plasma, iv, 1 mg/kg): 193 ng/mL
- concentration at 1.5 h ([11]; rat, plasma, iv, 1 mg/kg): 53 ng/mL
- concentration at 2 h ([11]; rat, plasma, iv, 1 mg/kg): 228 ng/mL

Structure (SMILES): N=C(N)c1cccc(CC(NS(=O)(=O)c2ccc3ccccc3c2)C(=O)N2CCC(C(=O)O)CC2)c1 (racemic) [Compound 85]
- concentration at 0.25 h ([9]; plasma, sc, 5 mg/kg): 1330 ng/mL
- concentration at 0.5 h ([9]; plasma, sc, 5 mg/kg): 1030 ng/mL
- concentration at 0.75 h ([9]; plasma, sc, 5 mg/kg): 860 ng/mL
- concentration at 1 h ([9]; plasma, sc, 5 mg/kg): 834 ng/mL
- concentration at 1.5 h ([9]; plasma, sc, 5 mg/kg): 913 ng/mL
- concentration at 2 h ([9]; plasma, sc, 5 mg/kg): 977 ng/mL
- concentration at 3 h ([9]; plasma, sc, 5 mg/kg): 815 ng/mL
- concentration at 4 h ([9]; plasma, sc, 5 mg/kg): 676 ng/mL
- concentration at 5 h ([9]; plasma, sc, 5 mg/kg): 550 ng/mL
- LD50 at 168 h ([8]; iv): 43 mg/kg
- LD50 at 168 h ([8]; po): > 3000 mg/kg
- Concentration in plasma ([10]; oral 100 mg/kg, 240 min): 0 ng/mL
- concentration at 0.25 h ([10]; plasma, po, 100 mg/kg): 870 ng/mL
- concentration at 0.5 h ([10]; plasma, po, 100 mg/kg): 541 ng/mL
- concentration at 0.75 h ([10]; plasma, po, 100 mg/kg): 345 ng/mL
- concentration at 1 h ([10]; plasma, po, 100 mg/kg): 120 ng/mL
- concentration at 2 h ([10]; plasma, po, 100 mg/kg): 103 ng/mL
- concentration at 3 h ([10]; plasma, po, 100 mg/kg): 104 ng/mL
- concentration at 2 min ([11]; rat, plasma, iv, 1 mg/kg): 2350 ng/mL
- concentration at 5 min ([11]; rat, plasma, iv, 1 mg/kg): 1240 ng/mL
- concentration at 10 min ([11]; rat, plasma, iv, 1 mg/kg): 526 ng/mL
- concentration at 0.25 h ([11]; rat, plasma, iv, 1 mg/kg): 334 ng/mL
- concentration at 0.5 h ([11]; rat, plasma, iv, 1 mg/kg): 240 ng/mL
- concentration at 0.75 h ([11]; rat, plasma, iv, 1 mg/kg): 176 ng/mL
- concentration at 1 h ([11]; rat, plasma, iv, 1 mg/kg): 99 ng/mL
- concentration at 1.5 h ([11]; rat, plasma, iv, 1 mg/kg): 52 ng/mL
- concentration at 2 h ([11]; rat, plasma, iv, 1 mg/kg): 28 ng/mL
- concentration at 4 h ([11]; rat, plasma, iv, 1 mg/kg): 14 ng/mL

- Ki [1]: 450 µM
- Ki [2]: 130 µM
Structure (SMILES): Nc1cccc(CC(NS(=O)(=O)c2ccc3ccccc3c2)C(=O)N2CCCCC2C(=O)O)c1 (racemic) [Compound 204]

- Ki [1]: 670 µM
- Ki [2]: 270 µM
Structure (SMILES): N=C(NO)c1cccc(CC(NS(=O)(=O)c2ccc3ccccc3c2)C(=O)N2CCC(C(=O)O)CC2)c1 (racemic) [Compound 189, N-α-(2-Naphthylsulfonyl)-3-oxamidino-(D,L)-phenylalanyl-isonipecotic acid hydroiodide]

Source: patent US5518735A, “Meta-substituted phenylalanine derivatives” (priority 1990, dated 1996)
